Patent US20150086504A1, “POLYMERIC MICROEMULSIONS” (Janssen Pharmaceutica NV, priority 2002, published 2015)
Converted amounts (≈) assume the structure as drawn. Where two headings read alike, the source gives them in different places.

Legend:
[1] = Solubility of model compounds in aqueous solutions of polymer D4.1 (mixed directly with polymeric solution; Table 4B); type: physicochemical; conditions: room temperature, duplicate; for solubility at 24 h: thermodynamic from solid
Procedure: The solubility of the other model compounds in aqueous solutions of polymer D4.1 was determined by mixing the model compound directly with the polymeric solution for 24 hours at room temperature. Tested polymer concentrations were 1, 5, 10 and 20% (w/v). The obtained suspension was then filtered through a 0.45 μm PVDF membrane filter. The filtered solution was immediately diluted to allow determination of compound concentration by UV spectroscopy. (A polymer solution of the same concentration as the sample to be analysed was used as blank).

physchem = conditions: water, thermodynamic from solid
[2] = Solubility in water of model compounds (UV spectroscopy); conditions: for solubility in water: mixed with water for 24 hours, UV spectroscopy, mean of triplicate; for solubility at 24 h: water, thermodynamic from solid
[3] = Pharmacokinetic parameters in plasma (LCMS) after oral administration of risperidone solutions; type: in vivo, Male Wistar rats; conditions: rat plasma, active metabolite, micellar solution D4.3 10% (w/v) compared to reference solution
Procedure: Male Wistar rats (˜200 g) were treated by oral administration of vehicles of 2.5 mg/kg risperidone solubilized in three different vehicles (tartaric acid 0.625% v/v (as the reference), copolymer D4.3 1% (w/v) in water and D4.3 10% (w/v) in water). The animals were sacrificed by decapitation 2 hours after administration.
The above experiment was also performed in function of time for the reference solution and for the D4.3 10% (w/v) aqueous solution. Therefore, animals were sacrificed by decapitation at 10 minutes, 30 minutes, 1 hour, 2 hours, 4 hours, 8 hours, 16 hours and 24 hours after administration of the risperidone formulations. […] During this experiment, the usual pharmacokinetic parameters of the active metabolite following oral administration of the two risperidone solutions were determined by LCMS analysis of the plasma samples. […] This finding confirmed the results of an in vitro release study of risperidone from a micellar solution of the present invention. The in vitro release study was performed by dialysing a micellar solution of the invention containing C^14-radioactive risperidone against water and determining the radioactivity by liquid scintillation counting of samples taken from the water as a function of time.

[4] = 24 h
[5] = 1% (w/v) aqueous solution of diblock copolymer D4.1, aqueous with cosolvent or surfactant or cyclodextrin, D4.1 polymer concentration 1 w/v %
[6] = 5% (w/v) aqueous solution of diblock copolymer D4.1, aqueous with cosolvent or surfactant or cyclodextrin, D4.1 polymer concentration 5 w/v %
[7] = 10% (w/v) aqueous solution of diblock copolymer D4.1, aqueous with cosolvent or surfactant or cyclodextrin, D4.1 polymer concentration 10 w/v %
[8] = 20% (w/v) aqueous solution of diblock copolymer D4.1, aqueous with cosolvent or surfactant or cyclodextrin, D4.1 polymer concentration 20 w/v %
[9] = D4.1 polymer concentration 1 w/v %
[10] = D4.1 polymer concentration 5 w/v %
[11] = D4.1 polymer concentration 10 w/v %
[12] = D4.1 polymer concentration 20 w/v %

Row | SMILES | solubility at 24 h [1, 5] [µg/mL] | solubility at 24 h [1, 6] [µg/mL] | solubility at 24 h [1, 7] [µg/mL] | solubility at 24 h [1, 8] [µg/mL] | solubility at 24 h (physchem) [µg/mL] | Solubility in aqueous solution of diblock copolymer D4.1 [1, 10] [µg/mL] | solubility at 24 h [2] [µg/mL] | other results
1 | CS(=O)(=O)O.O=c1c2c([nH]c3ccccc13)[C@@H](c1ccc3c(c1)CCO3)N(c1ccccn1)C2 [3-(2,3-dihydro-5-benzofuranyl)-1,2,3,4-tetrahydro-2-(2-pyridinyl)-9H-pyrrolo[3,4-b]quinolin-9-one, (3R) mono methanesulfonate] |  |  |  |  |  | 9830 |  | solubility in water [2]: 190 µg/mL; Solubility in aqueous solution of diblock copolymer D4.1 [1, 9]: 4370 µg/mL; Solubility in aqueous solution of diblock copolymer D4.1 [1, 11]: 12380 µg/mL; Solubility in aqueous solution of diblock copolymer D4.1 [1, 12]: 13950 µg/mL
2 | Cc1cc(C=CC#N)cc(C)c1Nc1ccnc(Nc2ccc(C#N)cc2)n1 [4-[[4-[[4-(2-cyanoethenyl)-2,6-dimethylphenyl]amino]-2-pyrimidinyl]amino]benzonitrile] | 50 (≈ 136 µM) | 120 (≈ 327 µM) | 230 (≈ 628 µM) | 440 (≈ 1200 µM) |  |  | 0.02 (≈ 0.0546 µM) | 
3 | Cc1nc2n(c(=O)c1CCN1CCC(c3noc4cc(F)ccc34)CC1)CCCC2 [Risperidone, risperidone] |  |  |  |  | 60 (≈ 146 µM) |  |  | AUC [3]: slightly higher; Cmax [3]: lower; half-life [3]: longer
4 | O=c1c2c([nH]c3ccccc13)[C@@H](c1ccc3c(c1)CCO3)N(c1ncc(-c3ccccn3)cn1)C2 [3-(2,3-dihydro-5-benzofuranyl)-1,2,3,4-tetrahydro-2-[5-(2-pyridinyl)-2-pyrimidinyl]-9H-pyrrolo[3,4-b]quinolin-9-one, (3R)] |  |  |  |  |  | 81 |  | solubility in water [2]: <1 µg/mL; Solubility in aqueous solution of diblock copolymer D4.1 [1, 9]: 18 µg/mL; Solubility in aqueous solution of diblock copolymer D4.1 [1, 11]: 150 µg/mL; Solubility in aqueous solution of diblock copolymer D4.1 [1, 12]: 280 µg/mL
5 | C[C@@H]1[C@H](O)[C@@H](C)/C=C/C=C/C=C/C=C/C=C/C=C/C=C/[C@H](O[C@@H]2O[C@H](C)[C@@H](O)[C@H](N)[C@@H]2O)C[C@@H]2O[C@](O)(C[C@@H](O)C[C@@H](O)[C@H](O)CC[C@@H](O)C[C@@H](O)CC(=O)O[C@H]1C)C[C@H](O)[C@H]2C(=O)O [Amphotericin B, amphotericin B] |  |  |  |  | 0.1 (≈ 0.108 µM) |  |  | 
6 | CC(=O)N1CCN(c2ccc(OCC3COC(Cn4ccnc4)(c4ccc(Cl)cc4Cl)O3)cc2)CC1 (stereo not shown) [Ketoconazole, ketoconazole] |  |  |  |  |  |  | 10 (≈ 18.8 µM) | 
7 | COc1cc2c(cc1OC)C1=NO[C@@H](CN3CCN(C/C(C)=C/c4ccc(F)cc4)CC3)[C@@H]1CO2 (relative stereo) [3-[[4-[(2E)-3-(4-fluorophenyl)-2-methyl-2-propenyl]-1-piperazinyl]methyl]-3a,4-dihydro-7,8-dimethoxy-3H-[1]benzopyrano[4,3-c]isoxazole [(3R,3aS)-rel-(+)]] |  |  |  |  |  | 1010 |  | solubility in water [2]: 3 µg/mL (≈ 6.23 µM); Solubility in aqueous solution of diblock copolymer D4.1 [1, 9]: 200 µg/mL; Solubility in aqueous solution of diblock copolymer D4.1 [1, 11]: 1880 µg/mL; Solubility in aqueous solution of diblock copolymer D4.1 [1, 12]: 3860 µg/mL
8 | COc1ccc2c(c1)c(CC(=O)O)c(C)n2C(=O)c1ccc(Cl)cc1 [Indomethacin, indomethacin] |  |  |  |  | 10 (≈ 27.9 µM) |  |  | solubility in water [4]: 10 µg/mL (≈ 27.9 µM)
9 | Cc1cc2c(cc1-c1cc(/C=C3\SC(=O)NC3=O)ccc1OC(F)(F)F)C(C)(C)CCC2(C)C [(Z) 5-[[3-(5,6,7,8-tetrahydro-3,5,5,8,8-pentamethyl-2-naphthalenyl)-4-(trifluoromethoxy)phenyl]methylene]-2,4-thiazolidinedione] | 34 (≈ 69.5 µM) | 130 (≈ 266 µM) | 350 (≈ 715 µM) | 580 (≈ 1180 µM) | < 0.5 |  |  | 

Second part, led by results:

Row | solubility at 24 h [1, 5] [µg/mL] | solubility at 24 h [1, 6] [µg/mL] | solubility at 24 h [1, 7] [µg/mL] | solubility at 24 h [1, 8] [µg/mL] | solubility at 24 h (physchem) [µg/mL] | Solubility in aqueous solution of diblock copolymer D4.1 [1, 10] [µg/mL] | solubility at 24 h [2] [µg/mL] | SMILES | other results
10 | 530 (≈ 1340 µM) | 2710 (≈ 6870 µM) | 5760 (≈ 14600 µM) | 13900 (≈ 35200 µM) | 15 (≈ 38 µM) |  |  | Nc1nc(Nc2ccc(S(N)(=O)=O)cc2)nn1C(=O)c1c(F)cccc1F [N3-[4-(aminosulfonyl)phenyl]-1-(2,6-difluorobenzoyl)-1H-1,2,4-triazole-3,5-diamine] | 
11 | 20 (≈ 53.6 µM) | 60 (≈ 161 µM) | 100 (≈ 268 µM) | 190 (≈ 509 µM) |  |  | 16 (≈ 42.9 µM) | CC(=O)NC[C@H]1CN(c2ccc(N3Cc4cn(C)nc4C3)c(F)c2)C(=O)O1 [N-[[(5S)-3-[4-(2,6-dihydro-2-methylpyrrolo[3,4-c]pyrazol-5(4H)-yl)-3-fluorophenyl]-2-oxo-5-oxazolidinyl]methyl]-acetamide] | 
12 | 60 (≈ 138 µM) |  | 520 (≈ 1190 µM) | 870 (≈ 2000 µM) |  | 300 | < 1 | Cc1cc(C#N)cc(C)c1Oc1nc(Nc2ccc(C#N)cc2)nc(N)c1Br [TMC 125, 4-[[6-amino-5-bromo-2-[(4-cyanophenyl)amino]-4-pyrimidinyl]oxy]-3,5-dimethylbenzonitrile] | 
13 |  |  |  |  |  |  | < 1 | Cc1cc(C)c(Nc2ccnc(Nc3ccc(C#N)cc3)n2)c(C)c1 [TMC 120, 4-[[4-[(2,4,6-trimethylphenyl)amino]-2-pyrimidinyl]amino]benzonitrile] | 
